± gives the expanded uncertainty stated by the source.
Assays:
[1] = Liquid; for mass density: 101.33 kPa, Pycnometric method; for Normal boiling temperature: Ebulliometric method (Recirculating still)
[2] = excess molar enthalpy (molar enthalpy of mixing); xn = mol fraction of the nth substance listed; settings: 298.15 K, 101 kPa, Liquid

CC(=O)CC(C)C [4-methylpentan-2-one]
[1]
Settings	mass density [kg/m3]	vapor or sublimation pressure [kPa]
298.15 K	796.33 ± 3.6	–
386.7 K	–	95.3 ± 5

Settings	Normal boiling temperature [°C]
[1]	117.39 ± 0.41

C[S+](C)[O-] [dimethyl sulfoxide]
[1]
Settings	mass density [kg/m3]	vapor or sublimation pressure [kPa]
298.15 K	1095.37 ± 6.8	–
461 K	–	95.3 ± 5

Settings	Normal boiling temperature [°C]
[1]	189.04 ± 0.41

O=C1CCCCC1 [cyclohexanone] + C[S+](C)[O-]
[2]
Settings	excess molar enthalpy [kcal/mol]
x1 = 0.0386	0.0249 ± 0.00196
x1 = 0.0873	0.0566 ± 0.00311
x1 = 0.1405	0.0601 ± 0.0239
x1 = 0.1917	0.105 ± 0.00526
x1 = 0.2431	0.121 ± 0.00574
x1 = 0.3037	0.135 ± 0.00645
x1 = 0.3596	0.152 ± 0.00693
x1 = 0.4115	0.161 ± 0.00741
x1 = 0.5044	0.165 ± 0.00765
x1 = 0.5686	0.158 ± 0.00717
x1 = 0.6399	0.147 ± 0.00693
x1 = 0.7238	0.126 ± 0.00598
x1 = 0.8119	0.0913 ± 0.00454
x1 = 0.9101	0.048 ± 0.00287

CCC(C)=O [butanone]
[1]
Settings	mass density [kg/m3]	vapor or sublimation pressure [kPa]
298.15 K	799.71 ± 3.7	–
350.9 K	–	95.3 ± 5

Settings	Normal boiling temperature [°C]
[1]	79.54 ± 0.41

O=C1CCCCC1 [cyclohexanone]
[1]
Settings	mass density [kg/m3]	vapor or sublimation pressure [kPa]
303.15 K	937.58 ± 5	–
426.3 K	–	95.3 ± 5

Settings	Normal boiling temperature [°C]
[1]	155.69 ± 0.41

CC(=O)CC(C)C [4-methylpentan-2-one] + C[S+](C)[O-]
[2]
Settings	excess molar enthalpy [kcal/mol]
x1 = 0.0387	0.0314 ± 0.00222
x1 = 0.0839	0.0636 ± 0.00359
x1 = 0.1332	0.0937 ± 0.00478
x1 = 0.1874	0.113 ± 0.0055
x1 = 0.2391	0.131 ± 0.00621
x1 = 0.2901	0.143 ± 0.00669
x1 = 0.3377	0.158 ± 0.00717
x1 = 0.3804	0.167 ± 0.00765
x1 = 0.4029	0.172 ± 0.00789
x1 = 0.4617	0.17 ± 0.00789
x1 = 0.5304	0.164 ± 0.00741
x1 = 0.6116	0.144 ± 0.00669
x1 = 0.6917	0.114 ± 0.0055
x1 = 0.7918	0.0687 ± 0.00359
x1 = 0.837	0.0539 ± 0.00311
x1 = 0.9237	0.0255 ± 0.00198

CCC(C)=O [butanone] + C[S+](C)[O-]
[2]
Settings	excess molar enthalpy [kcal/mol]
x1 = 0.054	0.0179 ± 0.00167
x1 = 0.1094	0.0357 ± 0.00239
x1 = 0.1725	0.0509 ± 0.00311
x1 = 0.2385	0.0621 ± 0.00335
x1 = 0.2956	0.0729 ± 0.00382
x1 = 0.3507	0.0832 ± 0.0043
x1 = 0.4007	0.0891 ± 0.00454
x1 = 0.4448	0.0936 ± 0.00478
x1 = 0.4881	0.0944 ± 0.00478
x1 = 0.5787	0.0966 ± 0.00478
x1 = 0.6433	0.0864 ± 0.0043
x1 = 0.7077	0.0737 ± 0.00382
x1 = 0.7797	0.0581 ± 0.00335
x1 = 0.856	0.0356 ± 0.00239
x1 = 0.9297	0.0135 ± 0.00151

Source: the NIST ThermoML archive (doi:10.1016/j.jct.2007.04.004)
